Here are results for 1 molecule from ChEMBL document CHEMBL5380808, “Design, Synthesis, and Biological Activity of Marinacarboline Analogues as STAT3 Pathway Inhibitors for Docetaxel-Resistant Triple-Negative Breast Cancer” (J Med Chem, 2023).

The term IC50 denotes the point on the concentration scale where inhibition reaches its midpoint.

Active and inactive are the calls of the source. No cut-off for these calls is given here.

The nature of experiment [1]: Induction of cell cycle arrest in docetaxel-resistant human MDA-MB-231-DTR cells assessed as accumulation at G2/M phase at 5 uM incubated for 48 hrs by PI staining based flow cytometry analysis (reference value: 13.54%). It is filed as functional. For orientation: A flow cytometer gives signals particle by particle.
Experiment [2] deals with MDA-MB-231. As to the kind of experiment: Antiproliferative activity against human MDA-MB-231 cells assessed as reduction in cell viability incubated for 72 hrs by MTT assay. It counts as functional, cell-based. The note with it: MDA-MB-231, 72 h.
Experiment [3] has as its system MDA-MB-231. Briefly: Inhibition of cell migration in docetaxel-resistant human MDA-MB-231-DTR cells at 3 to 6 uM incubated for 24 hrs by microscopy based wound healing assay. It is filed as functional. The note with it: dose 3-6 µM.
A short description of experiment [4]: Antiproliferative activity against […] cells assessed as reduction in cell viability incubated for 72 hrs by MTT assay. It counts as functional, cell-based. (Formazan colour is commonly taken as a measure of viable cells.)
Experiment [5] concerns MDA-MB-231. Briefly: Induction of apoptosis in docetaxel-resistant human MDA-MB-231-DTR cells assessed as downregulation of survivin expression level at 2.5 to 10 uM incubated for 48 hrs by Western blot analysis. It is filed as functional, cell-based. As to conditions: dose 2.5-10 µM. On the technique in general: In western blotting, separated proteins are transferred to a membrane and probed.

In experiment [6] the test system is MDA-MB-231. Briefly: Induction of apoptosis in docetaxel-resistant human MDA-MB-231-DTR cells assessed as downregulation of Bcl2 expression level at 2.5 to 10 uM incubated for 48 hrs by Western blot analysis. It counts as functional, cell-based. As to conditions: dose 2.5-10 µM.
Experiment [7] in a line: Synergistic antiproliferative activity against docetaxel-resistant human MDA-MB-231-DTR cells assessed as combination index at 8 uM incubated for 72 hrs in presence of 1 uM of docetaxel by Chou-Talalay method. It counts as functional.
The nature of experiment [8]: Induction of cell cycle arrest in docetaxel-resistant human MDA-MB-231-DTR cells assessed as accumulation at S phase at 5 uM incubated for 48 hrs by PI staining based flow cytometry analysis (reference value: 10.56%). It counts as functional.
Experiment [9] concerns MDA-MB-231. Briefly: Antitumor activity against docetaxel-resistant human MDA-MB-231-DTR cells xenografted in BALB/c mouse assessed as downregulation of Ki67 level in tumor tissue at 10 mg/kg, ip daily for 12 days by Immunohistochemical analysis. It is filed as functional, organism-based. The note with it: time 12.0 day.
The nature of experiment [10]: Induction of apoptosis in docetaxel-resistant human MDA-MB-231-DTR cells assessed as increase in total cell death at 5 uM incubated for 48 hrs by Annexin V-FITC and PI staining based flow cytometry. It is filed as functional.
Experiment [11] can be described thus: Synergistic antiproliferative activity against docetaxel-resistant human MDA-MB-231-DTR cells assessed as combination index at 4 uM incubated for 72 hrs in presence of 4 uM of docetaxel by Chou-Talalay method. It counts as functional.
Experiment [12] relates to MDA-MB-231. Briefly: Inhibition of cell migration in docetaxel-resistant human MDA-MB-231-DTR cells assessed as upregulation of E-cadherin expression level at 3 to 6 uM incubated for 24 hrs by Western blot analysis. It is filed as functional, cell-based. The note with it: dose 3-6 µM.
A short description of experiment [13]: Induction of cell cycle arrest in docetaxel-resistant human MDA-MB-231-DTR cells assessed as accumulation at G0/G1 phase at 5 uM incubated for 36 hrs by PI staining based flow cytometry analysis (reference value: 74.77%). It is filed as functional.
Experiment [14] in a line: Synergistic antiproliferative activity against docetaxel-resistant human MDA-MB-231-DTR cells assessed as combination index at 8 uM incubated for 72 hrs in presence of 2 uM of docetaxel by Chou-Talalay method. It counts as functional.
Experiment [15] has as its target T1, Signal transducer and activator of transcription 5A (Homo sapiens) (UniProt P42229).
T1 sequence (whole entry): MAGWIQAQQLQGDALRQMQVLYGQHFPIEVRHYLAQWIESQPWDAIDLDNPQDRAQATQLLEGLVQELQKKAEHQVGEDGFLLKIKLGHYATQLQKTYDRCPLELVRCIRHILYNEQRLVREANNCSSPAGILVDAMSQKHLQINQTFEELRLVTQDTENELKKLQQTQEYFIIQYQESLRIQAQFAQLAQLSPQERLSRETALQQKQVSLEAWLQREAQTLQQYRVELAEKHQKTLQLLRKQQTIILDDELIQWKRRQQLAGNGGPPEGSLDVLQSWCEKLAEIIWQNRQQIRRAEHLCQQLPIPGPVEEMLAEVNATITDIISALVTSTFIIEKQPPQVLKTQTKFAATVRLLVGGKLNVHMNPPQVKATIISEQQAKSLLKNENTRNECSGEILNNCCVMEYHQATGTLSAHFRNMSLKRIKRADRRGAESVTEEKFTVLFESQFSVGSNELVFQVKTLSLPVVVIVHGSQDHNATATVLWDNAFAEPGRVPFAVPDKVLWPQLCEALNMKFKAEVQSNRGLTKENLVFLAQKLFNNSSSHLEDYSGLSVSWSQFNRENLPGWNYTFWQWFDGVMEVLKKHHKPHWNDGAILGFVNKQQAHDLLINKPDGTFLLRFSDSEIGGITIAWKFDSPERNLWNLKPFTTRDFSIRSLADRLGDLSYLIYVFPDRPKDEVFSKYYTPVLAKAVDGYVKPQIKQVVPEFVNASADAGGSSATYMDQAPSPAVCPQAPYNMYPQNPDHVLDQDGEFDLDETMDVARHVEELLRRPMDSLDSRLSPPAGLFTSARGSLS
As to the kind of experiment: Inhibition of STAT5 phosphorylation at Y694 residue in docetaxel-resistant human MDA-MB-231-DTR cells assessed as decrease in phosphorylated STAT5 level at 2.5 to 10 uM incubated for 24 hrs by Western blot analysis. As to conditions: dose 2.5-10 µM. It counts as cell-based.

Experiment [16] is described as follows: Induction of cell cycle arrest in docetaxel-resistant human MDA-MB-231-DTR cells assessed as accumulation at S phase at 5 uM incubated for 12 hrs by PI staining based flow cytometry analysis (reference value: 10.56%). It is filed as functional.
Experiment [17] is described as follows: Antiproliferative activity against docetaxel-resistant human MDA-MB-231-DTR cells assessed as reduction in cell viability incubated for 72 hrs by MTT assay. The note with it: MDA-MB-231, 72 h. It is filed as functional, cell-based.
Experiment [18] is described as follows: Induction of cell cycle arrest in docetaxel-resistant human MDA-MB-231-DTR cells assessed as accumulation at G0/G1 phase at 5 uM incubated for 36 hrs by PI staining based flow cytometry analysis (reference value: 75.49%). It is filed as functional.
The nature of experiment [19]: Induction of cell cycle arrest in docetaxel-resistant human MDA-MB-231-DTR cells assessed as accumulation at G0/G1 phase at 10 uM incubated for 36 hrs by PI staining based flow cytometry analysis (reference value: 74.77%). It is filed as functional.
Experiment [20] is described as follows: Induction of cell cycle arrest in docetaxel-resistant human MDA-MB-231-DTR cells assessed as accumulation at subG1 phase at 5 uM incubated for 36 hrs by PI staining based flow cytometry analysis (reference value: 0.52%). It is filed as functional.
Experiment [21] can be described thus: Induction of cell cycle arrest in docetaxel-resistant human MDA-MB-231-DTR cells assessed as accumulation at subG1 phase at 2.5 uM incubated for 36 hrs by PI staining based flow cytometry analysis (reference value: 0.52%). It counts as functional.
For experiment [22], the system named is MDA-MB-231. Briefly: Antitumor activity against docetaxel-resistant human MDA-MB-231-DTR cells xenografted in BALB/c mouse assessed as downregulation of vimentin level in tumor tissue at 10 mg/kg, ip daily for 12 days by Immunohistochemical analysis. As to conditions: time 12.0 day. It counts as functional, organism-based.
Experiment [23] can be described thus: Induction of cell cycle arrest in docetaxel-resistant human MDA-MB-231-DTR cells assessed as accumulation at G0/G1 phase at 2.5 uM incubated for 36 hrs by PI staining based flow cytometry analysis (reference value: 74.77%). It counts as functional.

For the molecule `O=C(NCCc1c[nH]c2ccccc12)c1cc2c([nH]c3ccccc32)c(C(=O)c2ccc(Br)cc2)n1`, the Activity is listed as 12.87% in experiment [1]; 12.49% in [8]; 18.79% in experiment [10]; 51.37% in experiment [13]; 12.14% in experiment [16]; 55.56% in experiment [18]. The Activity is 51.09% in experiment [19], 1.81% in experiment [20], 0.57% in experiment [21] and 62.36% in experiment [23]. For the same molecule, the figures for the concentration for half-maximal inhibition (IC50) (with MDA-MB-231 [2]; in experiment [4]; in [17]) were 2.98 µM, 3.24 µM and 3.24 µM, respectively. In the experiment on MDA-MB-231 [3], the inhibition result is “Dose-Dependent Effect”. For the same molecule, the outcome in the experiment on MDA-MB-231 [5], in the experiment with MDA-MB-231 [6], in the experiment with MDA-MB-231 [9] and in the experiment with MDA-MB-231 [22] was Active. The CI in experiment [7] is 0.66; in [11], 0.37; in experiment [14] it was 0.45. The inhibition result in the experiment on MDA-MB-231 [12] is “Active”. The inhibition result in [15] was “inactive”.
